Data reported in ChEMBL document CHEMBL3507680, “University of Dundee, Gates Library screen for HepG2 cell viability”.

Test: Human HepG2 cell viability assay in 384 well format
Format: toxicity, cell-based
Parameters: dose 125 nL, time 70.5 hour; concentration not given beside the values
Conditions: HepG2 cells, read-out: Inhibition

| Structure (SMILES) | cytotoxicity at 70.5 h [%] |
| --- | --- |
| Cn1cccc1C(=O)N1CC[C@H]2C[C@@H](c3ccncn3)O[C@@H]2C1 | -9.87 |
| CCc1nccn1C1CCCN(C(=O)CCc2nc(C(C)C)no2)C1 (stereo unspecified) | -1.73 |
| COc1cccc(CN(C)C(=O)CN2CC(n3nc(C)cc3C)C2)c1 | -1.82 |
| O=C(NCCO)C1(Cc2cc(-c3ccc(F)cc3F)no2)CCOCC1 | -12.3 |
| COc1ccc(C)cc1CC(=O)Nc1cc(C)n[nH]1 | -8.99 |
| Cc1nc2ccccc2nc1CN1CCCCC1Cn1cncn1 (stereo unspecified) | -8.21 |
| Cn1c(C(=O)NC2CCCC2)nc2c1CCN(Cc1ccccc1)C2 | -5.5 |
| Cn1c(SCC(O)COCc2ccccc2Cl)nnc1C1CC1 (stereo unspecified) | -8.57 |
| Cc1nc(C)n(CC2CCCCN2CC(=O)Nc2cc(C)on2)n1 (stereo unspecified) | -13.4 |
| CC(C)C(C(=O)N1CCN(Cc2cscn2)CC1)n1cncn1 (stereo unspecified) | -1.99 |
| O=c1[nH]c(-c2ccccc2)nc2c1CCN(S(=O)(=O)N1CCCC1)C2 | -7.26 |
| Cc1cccc(OC2CCN(C(=O)NCc3cc[nH]n3)CC2)c1C | 0.923 |
| CCCN(CCC)C(=O)CN1CCCC1C(=O)N(C)C (stereo unspecified) | -5.85 |
| Cc1cc(C)c(CNC(=O)NCC2CCCN2C)c(=O)[nH]1 (stereo unspecified) | 19 |
| O=C(CCN1CCN(c2ccc3nncn3n2)CC1)N1CCCCC1 | -5.89 |
| Cc1cc(N2CCCC2c2cccnc2)nc(C)n1 (stereo unspecified) | 5.57 |
| CCc1nc(CN2CCN(CC(O)c3ccccc3)CC2)no1 (stereo unspecified) | 17.3 |
| CNS(=O)(=O)c1cccc(CNC(=O)NCC2CCOC2)c1 (stereo unspecified) | -8.46 |
| CCc1cnc(CN(C)C(=O)NC2CCN(CC3CC3)C2)s1 (stereo unspecified) | 25.5 |

| Structure (SMILES) | cytotoxicity at 70.5 h [%] |
| --- | --- |
| Cc1ccc(N(C)[C@@H]2CC[C@@H]3CN(C(=O)Cc4cccs4)C[C@@H]32)nn1 | -5.34 |
| Cc1nc(NC2CCN(S(=O)(=O)c3ccccc3)CC2)[nH]c(=O)c1C | -9.46 |
| O=C(O)c1ccccc1-n1cnc(CN2CCCc3ccccc32)c1 | -2.75 |
| CCCOc1ccc(Cl)cc1CNc1ncnc2oc(C)nc12 | -6.3 |
| COc1ccc(C)cc1CN(CC(N)=O)C(C)C | -3.29 |
| CCCc1nc(C)c(C(=O)NCCn2ccnc2)s1 | -7.16 |
| COCCN1C(=O)[C@H]2CC[C@@H]1CN(S(=O)(=O)c1ccc(C#N)cc1)C2 | -3.7 |
| Cn1nc(CNC(=O)C2CCC2)cc1C1CC1 | -4.15 |
| COc1ccc(CCN2CCCC(n3cncn3)C2)cc1 (stereo unspecified) | -10.1 |
| c1cnc(-c2nc(CN3CCCC(N4CCCC4)C3)cs2)nc1 (stereo unspecified) | -3.36 |
| COc1ccc(NC(C)C(=O)NCCc2cccs2)cc1F (stereo unspecified) | 9.05 |
| CCc1ncc(C(=O)N2CC[C@@H]3CC[C@H](C2)N3C)cn1 | -14 |
| Cc1ccc2c(c1)c(CNC(=O)C1CC(=O)N(CCN(C)C)C1)nn2C (stereo unspecified) | -0.487 |
| COc1ccc(OCCc2nnc(NC(C)=O)s2)cc1 | -4.39 |
| C[C@H]1C[C@@H]2CCN(C(=O)c3cnccn3)C[C@H]2O1 | -8.48 |
| CNC(=O)c1cccc(CCNC2CCSc3ccccc32)c1 (stereo unspecified) | -3.79 |
| Cc1cc(N2CCCN(c3nc(C)nc(C)c3C)CC2)ccn1 | -11 |
| c1cnn(CC2CCCCN2c2ncnc3ccsc23)c1 (stereo unspecified) | 18.2 |
| Cn1cc(-c2nnc3sc(C4CC4)nn23)cn1 | -4.13 |

| Structure (SMILES) | cytotoxicity at 70.5 h [%] |
| --- | --- |
| O=C(Cn1c(=O)oc2ccccc21)NCC1(O)CCc2ccccc2C1 (stereo unspecified) | -2.64 |
| CCNC(=O)[C@@H]1C[C@H](NC(=O)c2cc(=O)[nH]c3ccc(C)cc23)CN1C | -7.81 |
| CN(Cc1noc2c1CCCC2)C(=O)Nc1ccc2oc(=O)n(C)c2c1 | 20.6 |
| Cc1cccc(CN2CCO[C@H]3[C@H](Oc4ccccn4)CC[C@@H]32)n1 | -1.62 |
| Cc1cncc(C2CCCN(C(=O)c3cn(C)nc3C)C2)n1 (stereo unspecified) | -3.29 |
| Cn1cccc(NC(=O)N2CCC(CSc3ccccc3)C2)c1=O (stereo unspecified) | -13.5 |
| CN(Cc1ccon1)C1CCN(c2cccc(-c3cscn3)c2)CC1 | -4.4 |
| Cc1nnc(C(C)N2CCN(Cc3ccc4c(c3)OCO4)CC2)o1 (stereo unspecified) | 16.9 |
| CCc1ccc(OCC(O)CN2CCN(CCO)CC2)cc1 (stereo unspecified) | -3.3 |
| CC(C)(C)c1nnc(CN2CCOC(Cn3cccn3)C2)o1 (stereo unspecified) | 5.79 |
| Cc1cc(C(=O)N[C@H]2COC[C@@H]2N2CCOCC2)c2ccc(F)cc2n1 | -8.8 |
| Cc1ncc(CNC(=O)Cc2cccs2)c(C2CCCN2C)n1 (stereo unspecified) | -4.94 |
| COc1ccc(OC)c(C(C(=O)O)N2CCSCC2)c1 (stereo unspecified) | -4.28 |
| CN(C)[C@@H]1C[C@@H](CO)N(C(=O)Nc2ccc(SC(F)(F)F)cc2)C1 | 4.27 |
| CCOC(=O)N1CCN(C(=O)C2CC(=O)N(c3ccccc3Br)C2)CC1 (stereo unspecified) | -2.99 |
| O=C(Cc1csc(-c2ccc(Cl)cc2)n1)NC(C(=O)O)c1ccccc1 (stereo unspecified) | -9.96 |
| CCc1nc(Cn2nc(C3CCNCC3)n(-c3ccccc3)c2=O)cs1 | -5.68 |
| COc1ccc(C)cc1CN(Cc1ncc(C)o1)C1CCN(C)C1 (stereo unspecified) | 14.5 |
